Among the data in PubChem BioAssay (NCI) are GI50 and TGI values, retold here.

Broadly, the GI50 is the concentration that inhibits growth by half. For orientation: TGI means the concentration giving total growth inhibition. A low value points to greater sensitivity of the cells.

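48-hour exposure; five concentrations; linearly interpolated endpoints. GI50 marks 50% less growth. TGI: concentration producing complete growth inhibition.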

What all share (test): DTP human tumour cell line panel, 48 h
Test [1] concerns 786-0 renal.
For test [2], the system named is A549 NSCLC.
Test [3] concerns COLO 205 colon.
The test system of test [4] is HCT-15 colon.
The test system of test [5] is HOP-62 NSCLC.
The test system of test [6] is HS 578T breast.
In test [7] the test system is OVCAR-8 ovarian.
Test [8] relates to SK-MEL-2 melanoma.
Test [9] has as its system T-47D breast.
Test [10] deals with U251 CNS.

In the case of `CC(C)(C)N1CCC1CN` (stereo not given), the GI50 in test [1], in test [2], in test [3], in test [4], in [5] and in test [6] was over 100 µM throughout. Moreover, the GI50 in test [7], in test [8], in test [9] and in test [10] was over 100 µM in each case. In addition, the concentration for total growth inhibition (TGI) in [1], in [2], in test [3], in test [4], in [5] and in test [6] was over 100 µM each time. Also, the total growth inhibition concentration (TGI) in test [7], in test [8], in test [9] and in test [10] was over 100 µM in each case.

Consider `NS(=O)(=O)OCC1OC(n2cnc3cncnc32)C(O)C1O` (stereo not given), for which the concentration for 50% growth inhibition (GI50) in test [1] is 0.0228 µM; in test [2], 0.0246 µM; in [3], 0.0291 µM; in test [4] it was 0.0283 µM; in [5], under 0.01 µM; in test [6], 0.0592 µM. Besides, the 50% growth inhibitory concentration (GI50) was under 0.01 µM in test [7], 0.0351 µM in test [8], under 0.0134 µM in test [9] and 0.022 µM in test [10]. Also, the TGI worked out at 0.0693 µM in test [1]; 0.115 µM in [2]; 0.0847 µM in test [3]; 0.105 µM in test [4]; 0.0143 µM in test [5]; 0.932 µM in [6]. The TGI in [7] came out at 0.0466 µM; in [8], 0.133 µM; in test [9], 0.0665 µM; in test [10], 0.0749 µM.

Take `CCOC(=O)c1ccc(Nc2sc(C(=O)c3ccc(Br)cc3)c(N)c2C#N)cc1`: the GI50 in [1] is 1.99 µM; in test [2] it was 1.06 µM; in test [3] it was 0.675 µM; in [4] it was 0.662 µM; in test [5], 1.56 µM; in test [6] it was 1.48 µM. Besides, the GI50 in [7] was 6.91 µM; in [8], 1.27 µM; in [9], 2.85 µM; in [10] it was 1.49 µM. In addition, the TGI in test [1] was over 100 µM; in test [2], over 100 µM; in test [3], 2.47 µM; in test [4] it was over 100 µM; in test [5], over 100 µM; in test [6], over 100 µM. For the same molecule, the TGI in [7], in test [8], in test [9] and in test [10] was over 100 µM in each case.

On to `Cn1cc(C2=C(c3ccccc3[N+](=O)[O-])C(=O)NC2=O)c2ccccc21`, for which the GI50 in test [1] was 3.2 µM; in test [2] it was 4.09 µM; in test [3] it was 2.79 µM; in [4], 5.16 µM; in test [5] it was 5.35 µM; in test [6], 0.975 µM. Besides, the GI50 in test [7] is 6.07 µM; in test [8], 2.92 µM; in test [9], 7.52 µM; in test [10], 1.77 µM. The TGI in test [1] is over 25 µM; in [2], over 21.8 µM; in [3] it was 6.38 µM; in test [4] it was over 25 µM; in [5] it was over 23.3 µM; in [6], over 16.9 µM. Further, the TGI in test [7] was over 25 µM; in test [8], 9.55 µM; in test [9], 23.5 µM; in test [10], over 25 µM.

As to `O=C1CC[C@H](N2C(=O)c3cccc4c(Cc5ccc(CN6CCOCC6)cc5)ccc2c34)C(=O)N1`, the GI50 in test [1] is over 100 µM; in [2], 52.6 µM; in test [3], 45.8 µM; in test [4] it was 41.8 µM; in [5] it was 52.3 µM; in [6], 46.8 µM. Further, the GI50 in [7] was 56.6 µM; in [8] it was over 100 µM; in test [9] it was 10.7 µM; in [10] it was 60.3 µM. Besides, the total growth inhibition concentration (TGI) in test [1], in test [2], in test [3], in test [4], in [5] and in test [6] was over 100 µM throughout. For the same molecule, the TGI in test [7], in test [8], in test [9] and in test [10] was over 100 µM throughout.

`COc1cc2nccc(Oc3ccc(NC(=O)NC4CC4)c(Cl)c3)c2cc1C(N)=O`: the GI50 is 13.4 µM in [1]; 29.9 µM in test [2]; over 72.8 µM in test [3]; 32 µM in test [4]; 21.4 µM in test [5]; 14.5 µM in test [6]. Further, the GI50 in test [7] was 17.5 µM; in test [8], 19.1 µM; in test [9] it was 14.4 µM; in [10] it was 11.5 µM. For the same molecule, the TGI in test [1] was 37.7 µM; in [2] it was over 100 µM; in test [3], over 100 µM; in test [4], over 100 µM; in [5], 61.5 µM; in [6] it was over 86.9 µM. Further, the TGI was over 79.1 µM in [7], 48.6 µM in test [8], over 100 µM in [9] and 42.8 µM in test [10].

Take `COc1ccc(C(=O)Nc2ncc(Cc3cccc(Cl)c3)s2)cc1OC`: the GI50 in test [1] was 1.33 µM; in [2], 0.631 µM; in test [3], 0.222 µM; in [4] it was 0.0631 µM; in [5], 0.546 µM; in [6] it was 0.445 µM. Further, the GI50 in [7] is 1.56 µM; in [8], 0.557 µM; in test [9], 0.169 µM; in test [10], 0.505 µM. Also, the TGI in [1], in test [2], in [3], in [4], in [5] and in [6] was over 100 µM each time. Further, the concentration for total growth inhibition (TGI) in test [7], in test [8], in test [9] and in test [10] was over 100 µM each time.
